Values quoted from earlier work in US11021437B2, “Pharmaceutical formulation for sublingual or buccal delivery of epinephrine or a pro-drug thereof” (Iono Pharma, LLC, priority 2016, dated 2021).

What was measured:
[1] = in vivo
[2] = 0.01 mg/kg subcutaneously in the deltoid region

| t1/2 hydrolysis in vitro [days] | t1/2 oxidation in vitro [days] | time to maximum plasma epinephrine concentration [2] [min] | Structure (SMILES) | delay before onset of seizure [1] [min] |
| --- | --- | --- | --- | --- |
| 700 | 300 |  | CNCC(O)c1ccc(OC(=O)C(C)(C)C)c(OC(=O)C(C)(C)C)c1 (stereo not shown) [Structure 7D, 4-(1-hydroxy-2-(methylamino)ethyl)-1,2-phenylene bis(2,2-dimethylpropanoate)] | 8 to 10 |
|  |  | ≤ 34 ± 14 | CNC[C@H](O)c1ccc(O)c(O)c1 [Epinephrine] |  |
